# Laboratory results reported in patent publication US20230123601A1, “PHARMACEUTICAL COMBINATION OF ANTIVIRAL AGENTS TARGETING HBV AND/OR AN IMMUNE MODULATOR FOR TREATMENT OF HBV” (priority 2019, published 2023).
# System: HBV
# Experiment: HBsAg levels in serum of AAV/HBV mice (CLIA)
# Assay type: in vivo, C57BL/6 mice
# Parameters: HBsAg levels in serum (Average ± SD): scale not given here
# Text: The AAV-HBV mouse model is generated by injecting C57BL/6 mice with recombinant adeno-associated virus harboring a replicable HBV genome (AAV-HBV). The rAAV8-1.3 HBV ayw virus stock was purchased from Beijing FivePlus Molecular Medicine Institute (Beijing, China). The animals (male, aged 4-5 weeks upon arrival) were purchased from SLAC Laboratory Animal Co. Ltd (Shanghai, China), acclimatized in the animal facility for 5-7 days, and then injected with 1×10^11 vector genome of AAV-HBV (diluted in 200 μL of PBS) through the tail vein. Persistence expression of HBV genome can be established after three weeks, with high levels of HBV viral markers including HBV DNA, HBsAg, and HBeAg in mouse serum. With stable HBV viremia and competent immune system of the C57BL/6 mice, the AAV-HBV mouse model was used to evaluate the in vivo anti-HBV efficacy of the compounds. The in-life part of the AAV-HBV study was conducted through contracted service at Covance Pharmaceutical Research and Development (Shanghai) Co. Ltd. (Covance Shanghai) and the post-life analysis using the serum was performed internally at Roche Innovation Center Shanghai (RICS).
# Seven days before compound treatment, blood samples were collected for serum preparation (˜15 μL), and based on HBV DNA, HBsAg levels in serum and body weight, the AAV-HBV infected animals were stratified into the different treatment groups.
# Saline (Group 01) and anti-HBV ASO of CMP ID NO: 15_1 at 1.5 or 7.5 mg/kg were dosed sub subcutaneously once a week during Day 0-49 on Days 0, 7, 14, 21, 28, 35, 42 and 49. TLR7 agonist of CMP ID NO: VI 100 mg/kg was administered by oral gavage once every other day during Day 0-55 (QOD) or once weekly during Day 0-49 on Days 0, 7, 14, 21, 28, 35, 42 and 49 (QW). The animals were weekly bled via retro-orbital sinus for sample collection throughout the study.
# Serum HBsAg levels were determined in the serum of infected AAV-HBV mouse using the HBsAg chemoluminescence immunoassay (CLIA) (Autobio diagnostics Co. Ltd., Zhengzhou, China, Cat. no. CL0310-2), according to the manufacturer's protocol. Briefly, 50 μl of serum was transferred to the antibody coated microtiter plate and 50 μl of enzyme conjugate reagent was added. The plate was incubated for 60 min on a shaker at room temperature before all wells were washed six times with washing buffer using an automatic washer. 25 μl of substrate A and then 25 μl of substrate B was added to each well. The plate was incubated for 10 min at RT before luminescence was measured using an Envision luminescence reader (Perkin Elmer). HBsAg is given in the unit IU/ml; where 1 ng HBsAg=1.14 IU.
# To evaluate the combination of the anti-HBV ASO and the TLR7 agonist in an in vivo system, a mouse model of chronic HBV infection was used. In the AAV/HBV mouse model described in the Materials and Method a persistent HBV infection is established resulting in expression of viral markers (HBsAg, HBeAg, HBV DNA) detectable in plasma. The effect on these viral markers upon treatment with the anti-HBV ASO of CMP ID NO: 15_1 (table 2, and FIG. 4) dosed at 1.5 mg/kg or 7.5 mg/kg and the TLR7 agonist of CMP ID NO: VI (table 3) dosed with […] every other day (QOD) or once weekly (QW) in monotherapy or in combination has been evaluated.
compound,measurement,setting,value
"CC[C@H](OC(C)=O)[C@@H]1C[C@@H](O)[C@H](n2c(=O)sc3cnc(N)nc32)O1 [CMP ID NO: VI, [(1S)-1-[(2S,4R,5R)-5-(5-amino-2-oxo-thiazolo[4,5-d]pyrimidin-3-yl)-4-hydroxy-tetrahydrofuran-2-yl]propyl] acetate]",HBsAg levels in serum (Average ± SD),"D56, 15_1 7.5 mg/kg weekly, VI 100 mg/kg QW, or combination of both",2.13 ± 1.00
same,HBsAg levels in serum (Average ± SD),"D63, 15_1 1.5 mg/kg weekly, VI 100 mg/kg QOD, or combination of both",1.61 ± 0.96
same,HBsAg levels in serum (Average ± SD),"D63, 15_1 1.5 mg/kg weekly, VI 100 mg/kg QW, or combination of both",2.43 ± 1.14
same,HBsAg levels in serum (Average ± SD),"D63, 15_1 7.5 mg/kg weekly, VI 100 mg/kg QOD, or combination of both",1.61 ± 0.96
same,HBsAg levels in serum (Average ± SD),"D63, 15_1 7.5 mg/kg weekly, VI 100 mg/kg QW, or combination of both",2.43 ± 1.14
same,HBsAg levels in serum (Average ± SD),"D70, 15_1 1.5 mg/kg weekly, VI 100 mg/kg QOD, or combination of both",1.9 ± 1.23
same,HBsAg levels in serum (Average ± SD),"D70, 15_1 1.5 mg/kg weekly, VI 100 mg/kg QW, or combination of both",2.48 ± 1.23
same,HBsAg levels in serum (Average ± SD),"D70, 15_1 7.5 mg/kg weekly, VI 100 mg/kg QOD, or combination of both",1.90 ± 1.23
same,HBsAg levels in serum (Average ± SD),"D70, 15_1 7.5 mg/kg weekly, VI 100 mg/kg QW, or combination of both",2.48 ± 1.23
same,HBsAg levels in serum (Average ± SD),"D77, 15_1 1.5 mg/kg weekly, VI 100 mg/kg QOD, or combination of both",1.91 ± 1.18
same,HBsAg levels in serum (Average ± SD),"D77, 15_1 1.5 mg/kg weekly, VI 100 mg/kg QW, or combination of both",2.41 ± 1.16
same,HBsAg levels in serum (Average ± SD),"D77, 15_1 7.5 mg/kg weekly, VI 100 mg/kg QOD, or combination of both",1.91 ± 1.18
same,HBsAg levels in serum (Average ± SD),"D77, 15_1 7.5 mg/kg weekly, VI 100 mg/kg QW, or combination of both",2.41 ± 1.16
same,HBsAg levels in serum (Average ± SD),"D84, 15_1 1.5 mg/kg weekly, VI 100 mg/kg QOD, or combination of both",2.25 ± 1.16
same,HBsAg levels in serum (Average ± SD),"D84, 15_1 1.5 mg/kg weekly, VI 100 mg/kg QW, or combination of both",2.66 ± 1.15
same,HBsAg levels in serum (Average ± SD),"D84, 15_1 7.5 mg/kg weekly, VI 100 mg/kg QOD, or combination of both",2.25 ± 1.16
same,HBsAg levels in serum (Average ± SD),"D84, 15_1 7.5 mg/kg weekly, VI 100 mg/kg QW, or combination of both",2.66 ± 1.15
same,HBsAg levels in serum (Average ± SD),"D91, 15_1 1.5 mg/kg weekly, VI 100 mg/kg QOD, or combination of both",2.05 ± 1.35
same,HBsAg levels in serum (Average ± SD),"D91, 15_1 1.5 mg/kg weekly, VI 100 mg/kg QW, or combination of both",2.66 ± 1.44
same,HBsAg levels in serum (Average ± SD),"D91, 15_1 7.5 mg/kg weekly, VI 100 mg/kg QOD, or combination of both",2.05 ± 1.35
same,HBsAg levels in serum (Average ± SD),"D91, 15_1 7.5 mg/kg weekly, VI 100 mg/kg QW, or combination of both",2.66 ± 1.44
same,HBsAg levels in serum (Average ± SD),"D98, 15_1 1.5 mg/kg weekly, VI 100 mg/kg QOD, or combination of both",2.36 ± 1.26
same,HBsAg levels in serum (Average ± SD),"D98, 15_1 1.5 mg/kg weekly, VI 100 mg/kg QW, or combination of both",2.83 ± 1.16
same,HBsAg levels in serum (Average ± SD),"D98, 15_1 7.5 mg/kg weekly, VI 100 mg/kg QOD, or combination of both",2.36 ± 1.26
same,HBsAg levels in serum (Average ± SD),"D98, 15_1 7.5 mg/kg weekly, VI 100 mg/kg QW, or combination of both",2.83 ± 1.16
same,HBsAg levels in serum (Average ± SD),"D105, 15_1 1.5 mg/kg weekly, VI 100 mg/kg QOD, or combination of both",2.41 ± 1.18
same,HBsAg levels in serum (Average ± SD),"D105, 15_1 1.5 mg/kg weekly, VI 100 mg/kg QW, or combination of both",2.81 ± 1.1
same,HBsAg levels in serum (Average ± SD),"D105, 15_1 7.5 mg/kg weekly, VI 100 mg/kg QOD, or combination of both",2.41 ± 1.18
same,HBsAg levels in serum (Average ± SD),"D105, 15_1 7.5 mg/kg weekly, VI 100 mg/kg QW, or combination of both",2.81 ± 1.10
same,HBsAg levels in serum (Average ± SD),"D111, 15_1 1.5 mg/kg weekly, VI 100 mg/kg QOD, or combination of both",2.69 ± 1.38
same,HBsAg levels in serum (Average ± SD),"D111, 15_1 1.5 mg/kg weekly, VI 100 mg/kg QW, or combination of both",3.1 ± 1.12
same,HBsAg levels in serum (Average ± SD),"D111, 15_1 7.5 mg/kg weekly, VI 100 mg/kg QOD, or combination of both",2.69 ± 1.38
same,HBsAg levels in serum (Average ± SD),"D111, 15_1 7.5 mg/kg weekly, VI 100 mg/kg QW, or combination of both",3.10 ± 1.12
same,initial rate of reduction in HBsAg,"TLR7 agonist alone, FIG. 10A",slow initial rate of reduction in HBsAg
same,time of lowest HBsAg,"TLR7 agonist alone, FIG. 10A (100 mg/kg QOD)",42 days
same,suppression of HBsAg,TLR7 agonist at any of the doses,not capable of suppressing HBsAg to a level below the detection limit
